Columns and labels:
M. xanthus S motility = assay: T4P-mediated social (S) motility, colony expansion on soft agar; type: cell-based, Myxococcus xanthus; conditions: soft agar, strains YZ1674 (MxPilB) and YZ2232 (MC3PilB), 5 days, P < 0.05
Text: Benserazide and levodopa were examined to determine whether they could impact the T4P assembly function of PilB in vivo using M. xanthus as the model bacterium ([28]). […] Three M. xanthus strains were used for these experiments. Strain DK10416 lacks S motility because it is a pilB deletion (ΔpilB) mutant ([40]). The other two strains both assemble T4P and are proficient in S motility ([30]). Strain YZ1674 produces the wild-type (WT) M. xanthus PilB (MxPilB). YZ2232 expresses MC3PilB, a PilB chimera with the N terminus of MxPilB fused to the C-terminal ATPase domain of CtPilB ([30]). The PilB ATPase domains of MxPilB and MC3PilB are highly similar, with 66% shared identity and 77% similarity (Fig. S1).
FIG 5 Benserazide and levodopa inhibit T4P-mediated social (S) motility in Myxococcus xanthus. Expansion rates (cm/day) of the MxPilB (YZ1674) and the MC3PilB (YZ2232) strains on soft agar plates by S motility in the presence of (A and C) benserazide and (B and D) levodopa after 5 days of incubation. Results from three independent experiments are shown, each performed in quintuplicates with data points represented by dots of the same color. Horizontal black lines represent overall averages. Expansion rates were normalized by subtracting that of the ΔpilB strain, which has no S motility (also see Fig. S4). Asterisks (*) indicate that the values at the indicated concentrations are statistically different (P < 0.05) from those of the no-inhibitor control.
(§1) M. xanthus was grown and maintained at 32°C in Casitone-yeast extract (CYE) medium ([49]). Motility assays were conducted with strains DK10416 (ΔpilB) ([40]), YZ1674 (ΔpilB att::MxpilB) ([50]), and YZ2232 (ΔpilB att::MC3pilB) ([30], [51]) as previously described ([28]). One modification was that 10% India ink was included in the cell suspension to mark the initial spot on agar plates. All experiments were conducted in quintuplicates and the diameter of the initial spot, as marked by India ink, was subtracted for data analysis.

M. xanthus motility = assay: Colony expansion of S-motile strains on hard agar; type: cell-based, Myxococcus xanthus; conditions: strains YZ1674 and YZ2232, P < 0.05
Text: On the other hand, YZ1674 and YZ2232, which have both A and S motility, were affected in their expansion on hard agar by both compounds (Fig. S4 and S5) at concentrations similar to those on soft agar. Indeed, the results with hard agar plates mirror those with soft agar. […] Because neither benserazide nor levodopa had any effect on A motility (Fig. S3C and D), the net differences on hard agar at different concentrations of the inhibitor (Fig. S4) can be viewed as confirmation of its effect on S motility (Fig. 5). […] It is plausible that this inhibition is attributable to their effects on the PilB ATPase in vivo.
as §1

M. xanthus T4P assembly = assay: T4P assembly, dot blot of T4P fractions with anti-pilin antibodies; type: cell-based, Myxococcus xanthus; conditions: strain YZ603 (ΔdifE), 16-128 μM tested, P < 0.05
Experimental: Alternatively, they may inhibit other processes such as pilin production or T4P retraction. […] Briefly, pre-existing pili were sheared off and separated from cells by vortexing and centrifugation. These shaved or unpiliated cells were allowed to assemble new T4P in the presence or absence of a PilB inhibitor. T4P fractions were prepared and analyzed by dot blotting with anti-pilin antibodies as a measure of T4P levels ([28]). […] As such, the T4P fraction represents the level of T4P assembly without complication from T4P retraction ([28]).
Piliation levels of the M. xanthus strain YZ603 (ΔdifE) ([52]) were analyzed by dot-blotting with anti-PilA antibodies as previously described ([28]). This study included a fraction representing the “Basal” T4P levels for a given treatment. This is the T4P fraction from sheared cells mixed with an inhibitor and pre-equilibrated on ice for 10 min before the cells were incubated at 32°C for 20 min to allow T4P regrowth or assembly. These fractions were used as controls and subtracted as the baseline in data analysis.

[1] = tested on: A. nosocomialis biofilm formation; assay: Biofilm formation, microplate assay with crystal violet staining; type: cell-based, Acinetobacter nosocomialis; conditions: WT, P < 0.05
Text: The inhibitors may thus interact with conserved features of the PilB ATPase family. A. nosocomialis PilB ([19]), whose N terminus is not similar to the MshEN domain (data not shown), shares ~53% identity and ~74% homology with MxPilB and MC3PilB in the ATPase domain (Fig. S1). We analyzed whether benserazide and levodopa could impact the T4P-powered twitching motility ([19], [44]) of A. nosocomialis (Fig. 7), an opportunistic pathogen in the Acinetobacter calcoaceticus-Acinetobacter baumannii (ACB) complex ([45]). As shown in Fig. 7A and B and Fig. S7, benserazide and levodopa impede the twitching motility of WT A. nosocomialis in a concentration-dependent manner.
FIG 7 Benserazide and levodopa inhibit Acinetobacter nosocomialis twitching motility and biofilm formation. […] (C and D) Biofilms formed by A. nosocomialis with (C) benserazide or (D) levodopa were analyzed by a microplate assay with crystal violet (CV) staining. […]
The A. nosocomialis wild-type M2 strain and an isogenic pilA deletion (ΔpilA) mutant ([19], [46]) were used in this study. […] The twitching motility of the M2 strain of A. nosocomialis was analyzed with 1% crystal violet (CV) for staining, and twitching areas were used as measures of motility as previously described ([46]). […] A. nosocomialis biofilm formation was analyzed using microplates and CV staining as previously described ([53], [54]). […]

SMILES	concentration giving significant inhibition of S motility (M. xanthus S motility) [µM]	concentration giving statistically significant reduction of expansion on hard agar (M. xanthus motility) [µM]	concentration giving statistically significant decrease in T4P assembly (M. xanthus T4P assembly) [µM]	concentration significantly reducing biofilm formation [1] [µM]
NC(CO)C(=O)NNCc1ccc(O)c(O)c1O (centres unmarked) [benserazide]	≥ 8	≥ 8	≥ 16	≥ 32
N[C@@H](Cc1ccc(O)c(O)c1)C(=O)O [levodopa, 3,4-dihydroxyphenylalanine]	≥ 32	≥ 32	≥ 32	≥ 32

Source: publication PMC9769694, “Discovery of Two Inhibitors of the Type IV Pilus Assembly ATPase PilB as Potential Antivirulence Compounds” (Microbiology Spectrum, 2022)
